Laboratory results from ChEMBL document CHEMBL3797148, “Antiprotozoal activity of dehydroabietic acid derivatives against Leishmania donovani and Trypanosoma cruzi” (Medchemcomm, 2016).

Assays:
Leishmania donovani [1] = test: Antileishmanial activity against axenic amastigote stage of Leishmania donovani MHOM/SD/1962/1S-Cl2d assessed as inhibition of parasite growth at 50 uM after 24 hrs by Alamar blue viability assay; type: functional; details: read-out: GI
Leishmania donovani [2] = test: Antileishmanial activity against axenic amastigote stage of Leishmania donovani MHOM/SD/1962/1S-Cl2d assessed as inhibition of parasite growth at 15 uM after 24 hrs by Alamar blue viability assay; type: functional; details: read-out: GI
Trypanosoma cruzi [3] = test: Antiparasitic activity against amastigote stage of Trypanosoma cruzi Tulahuen C2C4 expressing LacZ gene infected in rat L6 cells after 96 hrs by photometric analysis; type: functional, organism-based; details: Tulahuen C2C4, L6, 96 h
[4] = Cytotoxicity against human THP1 cells after 24 hrs by Alamar blue viability assay; type: cell-based; details: THP-1, 24 h
[5] = Selectivity index, ratio of IC50 for rat L6 cells to IC50 for amastigote stage of Trypanosoma cruzi Tulahuen C2C4 expressing LacZ gene infected in rat L6 cells; type: toxicity, cell-based; details: read-out: Ratio IC50
Leishmania donovani [6] = test: Antileishmanial activity against Leishmania donovani promastigotes infected in human THP1 cells assessed as inhibition of amastigote growth by luciferase assay; type: functional, organism-based; details: THP-1
[7] = Selectivity index, ratio of IC50 for human THP-1 cells to IC50 for Leishmania donovani MHOM/SD/1962/1S-Cl2d axenic amastigotes; type: toxicity, cell-based; details: read-out: Ratio IC50
Leishmania donovani [8] = test: Antileishmanial activity against axenic amastigote stage of Leishmania donovani MHOM/SD/1962/1S-Cl2d assessed as inhibition of parasite growth after 24 hrs by Alamar blue viability assay; type: functional, organism-based
L6 = test: Cytotoxicity against rat L6 cells after 72 hrs by Alamar blue assay; type: cell-based; details: L6, 72 h
Leishmania donovani [9] = test: Antileishmanial activity against axenic amastigote stage of Leishmania donovani MHOM/SD/1962/1S-Cl2d assessed as inhibition of parasite growth at 5 uM after 24 hrs by Alamar blue viability assay; type: functional; details: read-out: GI
Leishmania donovani [10] = test: Antileishmanial activity against axenic amastigote stage of Leishmania donovani MHOM/SD/1962/1S-Cl2d assessed as inhibition of parasite growth at 1 uM after 24 hrs by Alamar blue viability assay; type: functional; details: read-out: GI
Leishmania infantum = test: Antileishmanial activity against promastigote stage of Leishmania infantum MCAN/ES/2001/UCM-10 after 72 hrs by Neubauer haemocytometric analysis; type: functional, organism-based; details: MCAN/ES/2001/UCM-10, 72 h
Leishmania braziliensis = test: Antileishmanial activity against promastigote stage of Leishmania braziliensis MHOM/BR/75/M2904 after 72 hrs by Neubauer haemocytometric analysis; type: functional; details: MHOM/BR/75/M2904, 72 h
Trypanosoma cruzi [11] = test: Antiparasitic activity against epimastigote stage of Trypanosoma cruzi IRHOD/CO/2008/SN3 after 72 hrs by Neubauer haemocytometric analysis; type: functional, organism-based; details: IRHOD/CO/2008/SN3, 72 h
Trypanosoma cruzi [12] = test: Potency index of ratio of Benznidazole IC50 to compound IC50 for antiparasitic activity against amastigote stage of Trypanosoma cruzi Tulahuen C2C4; type: functional

Row | IC50 (Trypanosoma cruzi [3]) [µM] | Structure (SMILES) | inhibition of growth at 50 µM (Leishmania donovani [1]) [%] | inhibition of growth at 15 µM (Leishmania donovani [2]) [%] | selectivity ratio [5] | IC50 (L6) [µM] | also measured
1 |  | CC[C@H](NC(=O)[C@]1(C)CCC[C@]2(C)c3ccc(C(C)C)cc3CC[C@@H]12)C(=O)O | 85 | 5.9 |  |  | 
2 |  | COC(=O)[C@H](CC(C)C)NC(=O)[C@]1(C)CCC[C@]2(C)c3ccc(C(C)C)cc3CC[C@@H]12 | 64.9 |  |  |  | 
3 | 22.8 | CC(C)c1ccc2c(c1)CC[C@H]1[C@](C)(C(=O)N[C@@H](CC3CCCCC3)C(=O)O)CCC[C@]21C | 98.1 | 92.2 | 1 | 29.1 | IC50 [4]: 40.5 µM; IC50 (Leishmania donovani [6]): 5 µM; selectivity ratio [7]: 24; IC50 (Leishmania donovani [8]): 1.7 µM; inhibition of growth at 5 µM (Leishmania donovani [9]): 63.6%
4 | 4.2 | COC(=O)[C@H](CC1CCCCC1)NC(=O)[C@]1(C)CCC[C@]2(C)c3ccc(C(C)C)cc3C(=O)C[C@@H]12 | 90.2 | 76.3 | 8 | 33.5 | IC50 [4]: 62.1 µM; IC50 (Leishmania donovani [6]): 6.6 µM; selectivity ratio [7]: 14; IC50 (Leishmania donovani [8]): 4.6 µM; inhibition of growth at 5 µM (Leishmania donovani [9]): 33.3%
5 |  | COC(=O)[C@@H](Cc1ccc(O)cc1)NC(=O)[C@]1(C)CCC[C@]2(C)c3ccc(C(C)C)cc3CC[C@@H]12 | 98.9 | 94.7 |  |  | IC50 [4]: 21.7 µM; selectivity ratio [7]: 2; IC50 (Leishmania donovani [8]): 11.1 µM; inhibition of growth at 5 µM (Leishmania donovani [9]): 38.8%
6 |  | COC(=O)[C@@H](NC(=O)[C@]1(C)CCC[C@]2(C)c3ccc(C(C)C)cc3CC[C@@H]12)C(C)C | 57.1 |  |  |  | 
7 |  | COC(=O)[C@H](CC1CCCCC1)NC(=O)[C@]1(C)CCC[C@]2(C)c3ccc(C(C)C)cc3CC[C@@H]12 | 43.2 |  |  |  | 
8 | 27.7 | CC(C)c1ccc2c(c1)CC[C@H]1[C@](C)(C(=O)N[C@H](Cc3ccccc3)C(=O)O)CCC[C@]21C | 98.3 | 96.8 | 2 | 60.6 | IC50 [4]: 41.4 µM; selectivity ratio [7]: 8; IC50 (Leishmania donovani [8]): 5.2 µM; inhibition of growth at 5 µM (Leishmania donovani [9]): 54.1%
9 |  | COC(=O)[C@@H](CCSC)NC(=O)[C@]1(C)CCC[C@]2(C)c3ccc(C(C)C)cc3CC[C@@H]12 | 88.7 | 50.8 |  |  | 
10 |  | CC(C)c1ccc2c(c1)/C(=N\O)C[C@H]1[C@](C)(C(=O)N[C@@H](CC3CCCCC3)C(=O)O)CCC[C@]21C | 97.7 | 52.3 |  |  | 
11 |  | CC[C@H](NC(=O)[C@]1(C)CCC[C@]2(C)c3ccc(C(C)C)cc3CC[C@@H]12)C(=O)OC | 57.6 |  |  |  | 
12 | 83.1 | CC(C)c1ccc2c(c1)CC[C@H]1[C@](C)(C(=O)N[C@H](Cc3cccnc3)C(=O)O)CCC[C@]21C | 9.8 |  | 2 | 174 | 
13 |  | C[C@@H]1[C@H](O)[C@@H](C)/C=C/C=C/C=C/C=C/C=C/C=C/C=C/[C@H](O[C@@H]2O[C@H](C)[C@@H](O)[C@H](N)[C@@H]2O)C[C@@H]2O[C@](O)(C[C@@H](O)C[C@@H](O)[C@H](O)CC[C@@H](O)C[C@@H](O)CC(=O)O[C@H]1C)C[C@H](O)[C@H]2C(=O)O [AMPHOTERICIN B] |  |  |  |  | inhibition of growth at 1 µM (Leishmania donovani [10]): > 90%
14 |  | CC(C)c1ccc2c(c1)CC[C@H]1[C@](C)(C(=O)N[C@H](C(=O)O)C(C)C)CCC[C@]21C | 90.6 | 10.9 |  |  | 
15 | 101 | CC(C)c1ccc2c(c1)CC[C@H]1[C@](C)(C(=O)O)CCC[C@]21C [DEHYDROABIETIC ACID] | 91.1 | 59.2 | 1 | 151 | 
16 | 5.8 | COC(=O)[C@H](CC1CCCCC1)NC(=O)[C@]1(C)CCC[C@]2(C)c3ccc(C(C)C)cc3/C(=N\O)C[C@@H]12 | 90.8 | 85.8 | 2 | 13.5 | IC50 [4]: 37.2 µM; selectivity ratio [7]: 7; IC50 (Leishmania donovani [8]): 5.6 µM; inhibition of growth at 5 µM (Leishmania donovani [9]): 52.9%
17 |  | COC(=O)CNC(=O)[C@]1(C)CCC[C@]2(C)c3ccc(C(C)C)cc3C(=O)C[C@@H]12 | 37.1 |  |  |  | 

Row | IC50 (Trypanosoma cruzi [3]) [µM] | Structure (SMILES) | inhibition of growth at 50 µM (Leishmania donovani [1]) [%] | inhibition of growth at 15 µM (Leishmania donovani [2]) [%] | selectivity ratio [5] | IC50 (L6) [µM] | also measured
18 |  | COC(=O)[C@]1(C)CCC[C@]2(C)C3=C(CC[C@@H]12)C(=O)C(C(C)C)=CC3=O |  |  |  |  | IC50 (Leishmania infantum): 14.2 µM; IC50 (Leishmania braziliensis): 14.2 µM; IC50 (Trypanosoma cruzi [11]): 14.2 µM
19 | 33.1 | CC(C)c1ccc2c(c1)CC[C@H]1[C@](C)(C(=O)N[C@@H](Cc3ccccc3)C(=O)O)CCC[C@]21C | 98.1 | 77.6 | 1 | 45.4 | IC50 [4]: 82.2 µM; IC50 (Leishmania donovani [6]): 9 µM; selectivity ratio [7]: 33; IC50 (Leishmania donovani [8]): 2.5 µM; inhibition of growth at 5 µM (Leishmania donovani [9]): 53.1%
20 |  | CC(C)c1ccc2c(c1)CC[C@H]1[C@](C)(C(N)=O)CCC[C@]21C | 55.2 |  |  |  | 
21 | 3.9 | CC(C)c1ccc2c(c1)C(=O)C[C@H]1[C@](C)(C(=O)N[C@@H](CC3CCCCC3)C(=O)O)CCC[C@]21C | 99.1 | 98.6 | 20 | 77.2 | IC50 [4]: 52 µM; IC50 (Leishmania donovani [6]): 2.3 µM; selectivity ratio [7]: 13; IC50 (Leishmania donovani [8]): 4 µM; inhibition of growth at 5 µM (Leishmania donovani [9]): 82.8%
22 |  | CC(C)C[C@H](NC(=O)[C@]1(C)CCC[C@]2(C)c3ccc(C(C)C)cc3CC[C@@H]12)C(=O)O | 91.2 | 34.8 |  |  | 
23 |  | COC(=O)[C@@H](Cc1c[nH]c2ccccc12)NC(=O)[C@]1(C)CCC[C@]2(C)c3ccc(C(C)C)cc3CC[C@@H]12 | 46.9 |  |  |  | 
24 |  | COC(=O)[C@H](Cc1ccccc1)NC(=O)[C@]1(C)CCC[C@]2(C)c3ccc(C(C)C)cc3CC[C@@H]12 | 68.6 |  |  |  | 
25 | 32.7 | COC(=O)[C@@H](Cc1ccc[n+]([O-])c1)NC(=O)[C@]1(C)CCC[C@]2(C)c3ccc(C(C)C)cc3CC[C@@H]12 | 27.1 |  | 3 | 85.9 | 
26 |  | CC(C)c1ccc2c(c1)CC[C@H]1[C@](C)(C(=O)N[C@H](Cc3ccc[n+]([O-])c3)C(=O)O)CCC[C@]21C | 1.9 |  |  |  | 
27 |  | COC(=O)[C@@H](Cc1ccccc1)NC(=O)[C@]1(C)CCC[C@]2(C)c3ccc(C(C)C)cc3CC[C@@H]12 | 77.5 | 51.5 |  |  | 
28 |  | CC(C)c1ccc2c(c1)CC[C@H]1[C@](C)(C(=O)NCC(=O)O)CCC[C@]21C | 69.3 |  |  |  | 
29 |  | CC(C)c1ccc2c(c1)CC[C@H]1[C@](C)(C(=O)N[C@H](Cc3ccc(O)cc3)C(=O)O)CCC[C@]21C | 96.1 | 9.8 |  |  | 
30 |  | CSCC[C@@H](NC(=O)[C@]1(C)CCC[C@]2(C)c3ccc(C(C)C)cc3CC[C@@H]12)C(=O)O | 98 | 47 |  |  | 
31 |  | CC(C)c1ccc2c(c1)CC[C@H]1[C@](C)(C(=O)N[C@H](Cc3c[nH]c4ccccc34)C(=O)O)CCC[C@]21C | 98.3 | 53.9 |  |  | 
32 | 1.4 | COC(=O)[C@@H](Cc1cccnc1)NC(=O)[C@]1(C)CCC[C@]2(C)c3ccc(C(C)C)cc3CC[C@@H]12 | 98.6 | 16.5 | 17 | 24.1 | Ratio IC50 (Trypanosoma cruzi [12]): 1.5
33 |  | COC(=O)CNC(=O)[C@]1(C)CCC[C@]2(C)c3ccc(C(C)C)cc3CC[C@@H]12 | 28.7 |  |  |  | 
